For one data set, the system named is L. monocytogenes EGD-e. Briefly: Agar diffusion test (ADT) of cell lysates, zone of growth inhibition, with PAS staining for glycosylation. It is filed as cell-based, Listeria monocytogenes. The following applies: for Zone of inhibition as well as glycosylation positive: ADT against L. monocytogenes, cleavage buffer treated cell lysate, glycosylation by PAS staining. On the technique in general: In agar diffusion tests the substance spreads into inoculated agar from a disc or well.

Data set [1] has as its system L. monocytogenes. Nature of the data set: Determination of the MIC against L. monocytogenes (96-well broth dilution). Format: cell-based, Listeria monocytogenes. The conditions noted are these: Minimum Inhibitory Concentration against L. monocytogenes, 18 h at 37° C. The protocol:
One colony of an indicator strain (L. monocytogenes) was picked from an NB agar plate, inoculated to liquid NB medium and grown at 37° C., in a shaking incubator until OD^600 nm of 0.5 was reached. Then, the culture was diluted with NB medium and serial twofold dilutions with NB medium were made. Hundred microliters of Enterocin 96 solution (1 mg/ml in MQ) were transferred to a 96-well plate and mixed with 100 μl previously prepared cell suspension of sensitive strain. Similarly, positive control Nisin (1 mg/ml in MQ, Sigma Cat. # N5764), 100 μl mixture of NB medium with the Listeria, and negative controls (media alone, untreated indicator strain). 100 μL mixture of NB medium were prepared and dispersed in the same 96-well plates. The plate was incubated for 18 h at 37° C. in a shaking incubator. After incubation, the growth of bacteria was evaluated visually and by a plate reader. The analyses were performed in triplicate. Similarly, MIC of other variants of Enterocin 96 (neo-glycocins) was determined using above described method.
On the technique in general: In broth dilution the organism is exposed to a series of concentrations in liquid medium.

A further data set deals with HepG2 cells. Briefly: Anti-cancer MTT reduction assay. The conditions noted are these: for IC50: 50% cell (cancerous) death, HepG2 cells, MTT, 18-24 hours. Format: cell-based. The protocol:
(§1) Cytotoxicity of Enterocin 96 and its variants (neo-glycocins) against THP-1 cells and anti-cancer potential against HepG2 cells was measured by the conventional MTT reduction assay. HepG2 and THP-1 cells (1×10^4 cells/well) were seeded into the 96-well plate and cultured at 37° C. in an atmosphere of 5% CO2 to allow them to adhere overnight. After 24 hours, the cells were exposed to Enterocin 96 and its variants (neo-glycocins) at various concentrations (75-1000 μM) for 18-24 hours. After the incubation period, 150 μl media and the suspended cells were discarded and washed with 200 μl PBS. After that, 200 μl of fresh media was added followed by 20 μl of MTT (5 mg/mL) into each well in the 96-well plate and incubated for 4 h in CO2 incubator. One hundred and fifty microlitres of medium with MTT was removed from every well and 100 μl DMSO was added to each well to solubilize the formazan crystal by incubating for 20 min in CO2 incubator. Finally, the plates were read at 570 nm by using Multiskan Go plate-reader (Thermo Scientific) and then percentage of cell viability was determined.
On the technique in general: Formazan colour is commonly taken as a measure of viable cells.

Another data set deals with THP-1 cells. Briefly: Cytotoxicity MTT reduction assay. It is filed as cell-based. The following applies: for IC50: 50% cell death, THP-1 cells, MTT, 18-24 hours. The protocol: as §1
The subject of another data set is human red blood cells. Briefly: Hemolytic assay. Format: cell-based. The protocol:
Samples were prepared within 3 h of performing the assay. Neo-glycocins stock solutions of 1 mg/ml were prepared by dissolving the neo-glycocins in PBS (10 mM phosphate buffer, pH 7.4); the samples were mixed by inversion to ensure neo-glycocins were completely dissolved in PBS. To prepare the Human Red Blood Cell (hRBC) solution, blood was collected from healthy individual and RBCs were isolated following standard procedure. Informed consent was acquired from all donors and this work was carried out in compliance with the ethical committee guidelines of CSIR-IMTECH with IEC NO SUIEC/14/03.
2 ml whole blood from healthy individual was centrifuged for 30 mins at 1000 rpm(4° C.). Layer of RBCs was collected and diluted with equal volume of 1×PBS and mixture was centrifuged three times for 10 mins at 1000 rpm, 4° C. To prepare 4% RBC solution, 1 ml of RBC were mixed with 24 ml 1×PBS. To examine the hemolysis property of neo-glycocins (75-1000 μM), 20 μl of freshly prepared neo-glycocins solution was mixed with 180 μl of freshly prepared hRBC solution and was placed at 37° C. for 1 h. A total of 20 μl of PBS buffer only and 20 μl of Triton X-100 1% (w/v) were mixed with 180 μl of hRBC solution as negative and positive controls, respectively. After 1 h of incubation, all samples were centrifuged at 2500 rpm for 10 min. A total of 100 μl of supernatant was collected, and the release of hemoglobin was monitored by measuring the absorbance of the supernatant at 570 nm with a Multiskan Go plate-reader (Thermo Scientific). Hemolysis percentage for each sample was calculated by dividing sample's absorbance on positive control absorbance (complete hemolysis) multiplied by 100.

For the next data set, the system named is bacterial strains. Briefly: Antimicrobial spectrum by ADT against bacterial strains. It is filed as cell-based. The following applies: FIG. 5B a-i. The protocol: (§2) FIG. 5B (d-i): Confirmation of antimicrobial activity of cleaved neo glycocins against bacterial strains namely L. monocytogenes EGDe (FIG. 5Bd-e): Vibrio cholera MTCC 3904 (FIG. 5Bf), E. coli 1610 (FIG. 5Bg), Bacillus lichenmformis MTCC 9857 (FIG. 5Bh) and Bacillus halodurans MTCC 7181 (FIG. 5Bi) using ADT;
Simultaneously, to check the change in spectrum of bioactivity of neo-glycocins, the agar plates of L. monocytogenes EGD-e seeded with approximately 10^7 bacterial cells were prepared. A 100 μL of cell lysate of mutants were added into the each well and then the plate was incubated at 4° C. for 1 h followed by overnight incubation at 37° C. The presence of inhibition zones around the wells was checked. The antimicrobial activity was determined by monitoring the zone of growth inhibition. […] The glycosylation status of the neo-glycocin produced from the selected mutant were analyzed using PAS staining and MALDI-TOF and LC-ESI-MS analysis as discussed below.

Data set [2] relates to L. monocytogenes MTCC 839. Briefly: Agar diffusion test (ADT) of cleaved neo-glycocins. Format: cell-based, Listeria monocytogenes. The conditions noted are these: L. monocytogenes MTCC 839, FIG. 5Bd-e.
A short description of data set [3]: Cytotoxicity MTT reduction assay. It is filed as cell-based. The following applies: human; 50% cell death, THP-1 cells, MTT, 18-24 hours. The protocol: as §1
In another data set the test system is E. coli MTCC 1610. Briefly: Agar diffusion test (ADT) of cleaved neo-glycocins. Format: cell-based.
From the text: as §2
Where in #1, f and g: cell lysate of cleavage buffer treated C13T, a variant of Enterocin 96 having SEQ ID NO: 10; #2, f and g: positive control parent peptide Enterocin 96 diglycosylated having SEQ ID NO: 9; #3, f and g: negative control/lysis buffer; #4.f and g: is negative control/cleavage buffer;
(§3) The cell lysate containing glycocins were directly subjected to agar diffusion test (ADT) using L. monocytogenes EGD-e. In ADT, the agar plates seeded with L. monocytogenes EGD-e (approximately 10^7 cells) were prepared. Approximately 100 μL lysate containing glycocin or its variants (neo-glycocin) (SEQ ID NO: 9, SEQ ID NO: 10 and SEQ ID NO: 11) were applied into the wells in the seeded plate followed by incubation of the plate at 4° C. for 1 h. Presence of inhibition zones around the wells was checked post overnight incubation of the plates at 37° C. The antimicrobial activities of the glycocin and neo-glycocin were determined by monitoring the zone of growth inhibition on the plates.

The subject of data set [4] is L. monocytogenes. Nature of the data set: pH and heat stability, bioactivity verified using ADT assay. The conditions noted are these: 121° C. for 15 minutes.
Data set [5] has as its system Bacillus licheniformis MTCC 9857. Briefly: Agar diffusion test (ADT) of cleaved neo-glycocins. Format: cell-based.
From the text: as §2
Wherein #1, h and i: cell lysate of cleavage buffer treated C13T, a variant of Enterocin 96 having SEQ ID NO: 10; #2, h and i: positive control parent peptide Enterocin 96 diglycosylated having SEQ ID NO: 9; #3, h and i: negative control/cleavage buffer; #4, h and i: is nisin (1 mg/ml).
as §3

No end group written: not given here. *: point of attachment. X1 = OC[C@H]1O[C@@H](O[C@H]2[C@H](O)[C@@H](O)[C@H](*)O[C@@H]2CO)[C@H](O)[C@@H](O)[C@@H]1O

As a reminder, the IC50 is the concentration that inhibits the measured activity by half. In the case of “variant of Enterocin 96: MASKRDCNLMKACCAEQAVTYAIQSLLNRLGGDSSDPAGCNDIVRKYCK (Variant of Enterocin 96) [SEQ ID NO: 45]”, the “Zone of inhibition as well as glycosylation positive” value (“Zone of inhibition as well” for short) in the data set on L. monocytogenes EGD-e is given as “positive”; with L. monocytogenes EGD-e (listed as G16E-H24L), “Yes”. Also, the “Anti-bacterial activity (MIC in μM)” value in the data set on L. monocytogenes [1] is above 0.54 µM. For the same substance, the results for the IC50 with HepG2 cells and in the data set with THP-1 cells were 222.3 ± 0.11 µM and 167.3 ± 1.39 µM, respectively. The “Hemolysis (MHC in μM)” value with human red blood cells came out at 600 µM.
Regarding “neo-glycocin with pediocin box (YYGNGV): MASKYYGNGVKRDCNLMKACCAGQAVTYAIHSLLNRLGGDSSDPAGCNDIVRKYCK (not fully specified; cysteine pairing not given here) [SEQ ID NO: 11]”, the “Antimicrobial spectrum compared with native glycocin / Nisin and Enterocin 96” value in the data set with bacterial strains was “different antimicrobial spectrum”. In addition, the “Zone of inhibition as well” value is “positive” in the data set with L. monocytogenes EGD-e and “Yes” with L. monocytogenes EGD-e (listed as PedioEnt96). Besides, the “Activity against L. monocytogenes compared with diglycosylated glycocin” value in the data set on L. monocytogenes EGD-e (monoglycosylated length and glycan variant, strain not specified) is on record as “as active as diglycosylated glycocin”. For the same substance, in the data set with L. monocytogenes [1], the “Anti-bacterial activity (MIC in μM)” value was above 0.54 µM. The IC50 stood at 192.1 ± 0.135 µM with HepG2 cells and 233.6 ± 0.132 µM in the data set with THP-1 cells. Further, the “Hemolysis (MHC in μM)” value with human red blood cells was 600 µM.
Turning to “variant of Enterocin 96: MASKRDCNLMKACCAGQAVTYAIHSLLNRLGGDSSGPAGCNDIVRKYCK (Variant of Enterocin 96) [SEQ ID NO: 42]”, the “Zone of inhibition as well” value in the data set with L. monocytogenes EGD-e was “positive”; in the data set with L. monocytogenes EGD-e (listed as D36G), “Yes”. Also, the “Anti-bacterial activity (MIC in μM)” value in the data set on L. monocytogenes [1] is above 0.54 µM. Also, the IC50 in the data set on HepG2 cells was determined as 204.2 ± 0.134 µM; with THP-1 cells it was 279.3 ± 0.0769 µM. Moreover, in the data set with human red blood cells, the “Hemolysis (MHC in μM)” value was 600 µM.
For the substance “variant of Enterocin 96: MASKACCAGQAVTYAIHSLLNRLGGDSSDPAGCNDIVRKYCK (Variant of Enteriocin 96) [SEQ ID NO: 41]”, the “Zone of inhibition as well” value in the data set on L. monocytogenes EGD-e is given as “positive”; in the data set on L. monocytogenes EGD-e (listed as ECT) it was “Yes”. For the same substance, in the data set on L. monocytogenes [1], the “Anti-bacterial activity (MIC in μM)” value is above 0.54 µM. Moreover, the IC50 with HepG2 cells came to 167 ± 0.122 µM; in the data set on THP-1 cells, 309.4 ± 0.388 µM. The “Hemolysis (MHC in μM)” value in the data set on human red blood cells was found to be 600 µM.
Take “MASKRDCNLMKACCAGQAVTYAIHSLLNRLGGDC(X1)SDPAGCNDIVRKYCK (cysteines drawn unpaired) [SEQ ID NO: 40]”: the “Zone of inhibition as well” value is “positive” in the data set on L. monocytogenes EGD-e and “Yes” with L. monocytogenes EGD-e (listed as S34C). Also, the “Bioactivity compared with the parent peptide” value in the data set on L. monocytogenes EGD-e (ADT, L. monocytogenes EGDe, FIG. 5Bd-e) was “equally bioactive”; in data set [2], “equally bioactive”. For the same substance, the IC50 in data set [3] was 314.7 ± 0.18 µM.
For the substance “MASKRDCNLMKATCAGQAVTYAIHSLLNRLGGDS(X1)SDPAGCNDIVRKYCK (cysteines drawn unpaired) [SEQ ID NO: 10]”, the “Antimicrobial spectrum compared with native glycocin / Nisin and Enterocin 96” value in the data set with bacterial strains is given as “different antimicrobial spectrum”; with bacterial strains (listed as C13T), “improved antibacterial spectrum”. For the same substance, in the data set “Water solubility”, the Water solubility result is recorded as “water soluble”. Moreover, the “Zone of inhibition as well” value is “positive” with L. monocytogenes EGD-e and “Yes” in the data set with L. monocytogenes EGD-e (listed as C13T). Moreover, in the data set on E. coli MTCC 1610, the “Bioactivity against Gram negative bacteria E. coli MTCC 1610” value was “observed”. The “Bioactivity against L. monocytogenes post autoclaving” value in the data set on L. monocytogenes [4] was “retain bioactivity”. Also, the “Cytotoxicity compared with Nisin and Enterocin 96” value in the data set on HepG2 cells (HepG2, FIG. 6C) was “no significant change”; in the data set on THP-1 cells (THP-1, FIG. 6B), “no significant change”. In addition, the “Bioactivity against Gram positive spore forming bacteria Bacillus licheniformis MTCC 9857” value in data set [5] is listed as “observed”. Further, in data set [3], the IC50 is 248.6 ± 0.105 µM. Further, in the data set on human red blood cells (FIG. 6A), the “Hemolysis compared with Nisin and Enterocin 96” value is reported as “no significant change”.
In the case of “MASKRDCNLMKACCAGQAVTYAIHSLLNRLGGDS(X1)SDPAGCNDIVRKYCK (cysteines drawn unpaired) [SEQ ID NO: 9, Enterocin 96, reference compound]”, the “Bioactivity against Gram negative bacteria E. coli MTCC 1610” value in the data set with E. coli MTCC 1610 is “not”. For the same substance, in data set [5], the “Bioactivity against Gram positive spore forming bacteria Bacillus licheniformis MTCC 9857” value is listed as “not”. Besides, in data set [3], the half-inhibitory concentration (IC50) amounted to 194.1 ± 0.119 µM.

The record behind these values is patent US12241058B2, “Recombinant microbial system for directed evolution of glycocins and method of preparation thereof” (COUNCIL OF SCIENTIFIC & INDUSTRIAL RESEARCH, priority 2018, dated 2025).
